Numbered stars: 1 amine (or outer) side, 2 acyl side, 3 side chain; on linkers, the order of the positions; unused ones are H or OH. Bridge positions count the residues as written; N and C are the ends. Square brackets hold non-standard residues; d marks the D form. Peptide text beside a SMILES is read from it. * marks the point of attachment. X1 = O=C([C@@H]1CCCN1C[C@@H]1CCCN1[*:1])[*:2]; pGlu = O=C1CC[C@@H](C(=O)O)N1; X2 = Oc1ccc(/C=C/N*)cc1
Experiments:
K562 = test: Cytotoxicity against human K562 cells; type: functional; conditions: read-out: LC50 (the source's name)
A549 = test: Cytotoxicity against human A549 cells; type: functional; conditions: read-out: LC50 (the source's name)
[1] = target: Sodium/potassium-transporting ATPase (Homo sapiens) (UniProt P05023+P14415+P05026+P50993+P54709+P13637+Q13733+P54710)
Description: Inhibition of Na+/K+ ATPase (unknown origin)

O=C1CC[C@@H](C(=O)N[C@H]2CSSC[C@@H](C(=O)N/C=C/c3ccc(O)cc3)NC(=O)[C@H](Cc3ccccc3)NC(=O)[C@@H]3CCCN3C[C@@H]3CCCN3C2=O)N1 ([pGlu]C[X1]FC-X2; disulfide 2-5)
CC50 (K562): 6.9 µM | CC50 (A549): 7.1 µM | LC50 [1]: 17.8 µM

COc1cccc2c1C(=O)c1c(O)c3c(c(O)c1C2=O)C[C@@](O)(C(=O)CO)C[C@@H]3O[C@H]1C[C@H](N)[C@H](O)[C@H](C)O1 [DOXORUBICIN]
CC50 (K562): 0.7 µM | CC50 (A549): 0.5 µM

From ChEMBL document CHEMBL2406969, “Gombamide A, a cyclic thiopeptide from the sponge Clathria gombawuiensis” (2013)
